Experimental data published in US20090305993A1, “METHODS AND COMPOSITION FOR THE TREATMENT OF GASTROINTESTINAL DISORDERS” (IRONWOOD PHARMACEUTICALS, INC., priority 2006, published 2009).
Where a SMILES comes first, the peptide text is derived from it. Bridges are numbered along the chain shown (N, C = ends). Where no end group is shown, it is not given here.

Experiments:
[1] = test system: mice; experiment: murine gastrointestinal transit (GIT) assay, acute dosing; type: in vivo, mouse; settings: for intestinal transit rate versus dosage: recombinantly synthesized peptides, FIG. 4a; for gastrointestinal transit rate: oral, SEQ ID NO:4 0.1 mg/kg, Zelnorm 0.1 mg/kg, FIG. 3a, 3b
Method: In order to determine whether the peptides increase the rate of gastrointestinal transit, the peptides and controls were tested using a murine gastrointestinal transit (GIT) assay (Moon et al. Infection and Immunity 25:127, 1979). In this assay, charcoal, which can be readily visualized in the gastrointestinal tract is administered to mice after the administration of a test compound. The distance traveled by the charcoal is measured and expressed as a percentage of the total length of the […].
Mice were fasted with free access to water for 12 to 16 hours before the treatment with peptide or control buffer. The peptides were orally administered at 1 μg/kg-1 mg/kg of peptide in buffer (20 mM Tris pH 7.5) 7 minutes before being given an oral dose of 5% Activated Carbon (Aldrich 242276-250G). Control mice were administered buffer only before being given a dose of Activated Carbon. After 15 minutes, the mice were sacrificed and their intestines from the stomach to the cecum were dissected. The total length of the intestine as well as the distance traveled from the stomach to the charcoal front was measured for each animal and the results are expressed as the percent of the total length of the intestine traveled by the charcoal front. All results are reported as the average of 10 mice±standard deviation. A comparison of the distance traveled by the charcoal between the mice treated with peptide versus the mice treated with vehicle alone was performed using a Student's t test and a statistically significant difference was considered for P<0.05. P-values are calculated using a two-sided T-Test assuming unequal variances.

[2] = test system: suckling mice; experiment: suckling mouse model of intestinal secretion (SuMi assay); type: in vivo
Method: In this model a test compound is administered to suckling mice that are between 7 and 9 days old. After the mice are sacrificed, the gastrointestinal tract from the stomach to the cecum is dissected (“guts”). The remains (“carcass”) as well as the guts are weighed and the ratio of guts to carcass weight is calculated. If the ratio is above 0.09, one can conclude that the test compound increases intestinal secretion. […] The effect of Zelnorm® was also studied.

[3] = test system: mouse; experiment: phenylbenzoquinone (PBQ)-induced writhing model; settings: oral; SEQ ID NO:5 1 mg/kg, SEQ ID NO:3 2.5 mg/kg; versus vehicle control, FIGS. 8a, 8b
[4] = oral bioavailability in rats, LCMS; type: in vivo, rat; settings: plasma
Method: Similarly, oral bioavailability was determined in rats using LCMS methodology. Rat plasma samples containing SEQ ID NO:3 and/or SEQ ID NO:6 were extracted using a Waters Oasis MAX 96 well solid phase extraction (SPE) plate. A 200 μL volume of rat plasma was mixed with 200 μL of ^13C9, ^15N—SEQ ID NO:3 in the well of a prepared SPE plate. The samples were drawn through the stationary phase with 15 mm Hg vacuum. All samples were rinsed with 200 μL of 2% ammonium hydroxide in water followed by 200 μL of 20% methanol in water. The samples were eluted with consecutive 100 μL volumes of […] formic acid/water/methanol and 100 μL 5/15/80 formic acid/water/methanol. The samples were dried under nitrogen and resuspended in 100 μL of 20% methanol in water. Samples were analyzed by a Waters Quattro Micro mass spectrometer coupled to a Waters 1525 binary pump with a Waters 2777 autosampler. A 40 μL volume of each sample was injected onto a Thermo Hypersil GOLD C18 column (2.1×50 mm, 5 um). SEQ ID NO:3 and SEQ ID NO:6 were eluted by a gradient over 3 minutes with acetonitrile and water containing 0.05% trifluoroacetic acid. The Quattro Micro mass spectrometer was run in multiple reaction monitoring (MRM) mode using the mass transitions of 764>182 and 682>136 for SEQ ID NO:3 and SEQ ID NO:6 respectively. Using this methodology, SEQ ID NO:3 was dosed orally and by IV to rats at 10 mg/kg. […] In this experiment, the limit of detection (LOD) for SEQ ID NO:6 was 0.78 nM. SEQ ID NO:6 was detected at all time points for the intravenous dose and was not detected beyond 240 min for the oral dose. For non-detected values, the LOD was used as an upper estimate of the concentration of SEQ ID NO:6. The calculated value for AUCp.o., (0-6h) was <1308 nM-min and AUCi.v.,(0-6h) was 1,590,000 nM-min. The 6 h bioavailability of SEQ ID NO:6 determined by circulating plasma levels was 0.08%

[5] = target: T1, carboxypeptidase A (Homo sapiens, UniProt P15085); experiment: in vitro proteolytic stability, carboxypeptidase A
T1 sequence (P15085 111-419): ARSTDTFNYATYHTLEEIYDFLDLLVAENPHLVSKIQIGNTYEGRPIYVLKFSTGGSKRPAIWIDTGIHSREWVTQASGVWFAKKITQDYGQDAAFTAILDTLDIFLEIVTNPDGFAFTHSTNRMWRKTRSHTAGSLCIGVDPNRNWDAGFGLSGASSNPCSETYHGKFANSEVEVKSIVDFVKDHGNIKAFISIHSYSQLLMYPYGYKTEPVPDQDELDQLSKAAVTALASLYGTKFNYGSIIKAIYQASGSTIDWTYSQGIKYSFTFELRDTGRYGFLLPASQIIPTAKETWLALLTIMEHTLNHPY
Method: The stability of SEQ ID NO:3 in the presence of several mammalian digestive enzymes was determined. SEQ ID NO:3 was exposed to a variety of in vitro conditions including digestive enzymes and low ph environments designed to simulate gastric fluid. SEQ ID NO:3 was incubated with chymotrypsin, trypsin, pepsin, aminopeptidase, carboxypeptidase A, and simulated gastric fluid (sgf) at ph 1.0. Samples were collected at 0, 3, and 24 h for all conditions except pepsin digestion and the SGF. For the latter two conditions, samples were obtained at 0, 1, and 3 h. Negative control samples were prepared for initial and final time points. A separate, positive activity control was run in parallel to SEQ ID NO:3. All samples were analyzed by LC/MS
Five (5) μL of a 40 μg/mL carboxypeptidase inhibitor (carboxypeptidase inhibitor from potato tuber (Sigma-Aldrich, C0279) stock was added to each control sample (0 and 24 h), for a final concentration of 0.4 μg/mL. All control and test (0, 3 and 24 h) samples were incubated at 37° C. for 5 min. Twenty (20) μL of a 0.01 mg/mL carboxypeptidase A (Carboxypeptidase A from human pancreas; Sigma-Aldrich, C5358) stock was added to each sample. The samples were returned to the 37° C. water bath. The reaction was quenched with 5 μL of a 40 μg/mL carboxypeptidase inhibitor at the proper time point. No extra carboxypeptidase inhibitor was added to the control samples since there was already inhibitor present. Samples were subsequently flash frozen in liquid nitrogen, and stored at −80° C. until analysis. Upon analysis, samples were thawed and transferred to a 1 mL 96-well deep microtiter plate. […] These standards were used to generate a standard curve for quantification of samples. When necessary, the standard curves were also used to calculate the concentration of the corresponding digestion product. Ten (10) μL injections were made of each sample and standard.
To further study the SEQ ID NO:3 carboxypeptidase A digestion product, samples of 0.01 mg/mL SEQ ID NO:3 were prepared in the carboxypeptidase A reaction buffer at a total volume of 500 μL in 2 mL eppendorf tubes. Triplicate samples were prepared for the following time points: 0, 15, 30, 60, 120, 180 and 240 min. The samples were incubated at 37° C. for 5 min. Twenty (20) μL of a 0.01 mg/mL carboxypeptidase A stock were added to each sample and returned to the 37° C. water bath. The reactions were quenched with 5 μL of a 40 μg/mL carboxypeptidase inhibitor at the proper time points. Samples were subsequently flash frozen in liquid nitrogen, and stored at −80° C. until analysis. Upon analysis, samples were thawed and transferred to a 1 mL 96-well plate. Standards of SEQ ID NO:3 were prepared in carboxypeptidase A reaction buffer at 0.625, 1.25, 2.50, 5.00, and 10.00 μg/mL concentrations. These standards were used to generate a standard curve for quantification of samples. When necessary, the standard curves were also used to calculate the concentration of the corresponding digestion product. Ten (10) μL injections were made of each sample and standard. If the formation of a digestion product was evident, then a spectral analysis was used to determine the mass of the digestion product, and predict its possible identity.

[6] = test system: CD1 female mice; experiment: murine gastrointestinal transit assay, chronic dosing; type: in vivo, mouse; settings: oral, daily for 5 days; SEQ ID NO:3 0.06 or 0.25 mg/kg; FIG. 4c
Method: The identical experiment was performed to determine if SEQ ID NO:3 is effective in a chronic dosing treatment regimen. Briefly, 8 week old CD1 female mice are dosed orally once a day for 5 days with either SEQ ID NO:3 (0.06 mg/kg or 0.25 mg/kg in 20 mM Tris pH 7.5) or vehicle alone (20 mM Tris pH 7.5). On the 5th day, a GIT assay is performed identical to that above except 200 μl of a 10% charcoal solution is administered. […] The results are shown side by side with acute dosing (1 day).

[7] = target: T2, intestinal GC-C receptor (Homo sapiens, UniProt P25092); experiment: intestinal GC-C receptor activity assay (cyclic GMP EIA) in T84 cells; type: cell-based; settings: chemically synthesized peptides, FIGS. 2a and 2b
T2 construct: monolayers of T84 cells in 24-well plates; host or cells: T84 human colon carcinoma cells
T2 sequence (P25092 24-1073): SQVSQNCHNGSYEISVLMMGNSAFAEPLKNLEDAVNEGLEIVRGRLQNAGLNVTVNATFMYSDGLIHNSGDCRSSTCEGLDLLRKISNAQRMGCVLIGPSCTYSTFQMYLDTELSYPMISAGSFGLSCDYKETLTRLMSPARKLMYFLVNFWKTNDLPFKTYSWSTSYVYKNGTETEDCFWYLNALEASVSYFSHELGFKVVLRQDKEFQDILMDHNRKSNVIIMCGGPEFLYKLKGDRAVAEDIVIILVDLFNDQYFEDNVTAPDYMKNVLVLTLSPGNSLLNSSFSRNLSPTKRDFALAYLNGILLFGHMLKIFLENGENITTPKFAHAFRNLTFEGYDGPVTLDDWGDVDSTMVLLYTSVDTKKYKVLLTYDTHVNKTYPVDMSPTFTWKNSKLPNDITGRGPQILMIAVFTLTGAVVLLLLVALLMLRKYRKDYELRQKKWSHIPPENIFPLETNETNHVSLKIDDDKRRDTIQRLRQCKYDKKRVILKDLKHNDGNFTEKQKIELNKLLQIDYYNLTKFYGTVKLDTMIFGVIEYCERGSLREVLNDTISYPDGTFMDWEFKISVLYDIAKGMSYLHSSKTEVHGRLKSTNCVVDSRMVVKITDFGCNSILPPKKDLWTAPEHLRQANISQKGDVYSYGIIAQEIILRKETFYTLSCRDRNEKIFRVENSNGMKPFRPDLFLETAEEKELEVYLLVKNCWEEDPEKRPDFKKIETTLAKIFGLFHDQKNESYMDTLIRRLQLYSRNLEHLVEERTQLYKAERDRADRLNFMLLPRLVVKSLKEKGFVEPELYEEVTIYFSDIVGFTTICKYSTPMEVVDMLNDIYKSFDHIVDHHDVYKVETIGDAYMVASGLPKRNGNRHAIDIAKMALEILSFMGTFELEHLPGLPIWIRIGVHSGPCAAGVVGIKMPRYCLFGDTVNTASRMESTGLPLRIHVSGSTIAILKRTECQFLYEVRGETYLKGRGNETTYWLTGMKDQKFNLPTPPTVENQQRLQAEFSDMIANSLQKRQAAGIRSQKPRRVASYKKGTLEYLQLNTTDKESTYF
Method: The ability of SEQ ID NO:5, SEQ ID NO:4, SEQ ID NO:3, and SEQ ID NO:6 to activate the intestinal GC-C receptor was assessed in an assay employing the T84 human colon carcinoma cell line (American Type Culture Collection (Bethesda, Md.)). For the assays cells were grown to confluency in 24-well culture plates with a 1:1 mixture of Ham's F12 medium and Dulbecco's modified Eagle's medium (DMEM), supplemented with 5% fetal calf serum and were used at between passages 54 and 60.
Briefly, monolayers of T84 cells in 24-well plates were washed twice with 1 ml/well DMEM, then incubated at 37° C. for 10 min with 0.45 ml DMEM containing 1 mM isobutylmethylxanthine (IBMX), a cyclic nucleotide phosphodiesterase inhibitor. Test peptides (50 μl) were then added and incubated for 30 minutes at 37° C. The media was aspirated and the reaction was then terminated by the addition of ice cold 0.5 ml of 0.1N HCl. The samples were held on ice for 20 minutes and then evaporated to dryness using a heat gun or vacuum centrifugation.

[8] = target: T3, GC-C receptors found in rat intestinal mucosa (Rattus norvegicus, UniProt P23897); settings: same assay, observed by Giannella et al.; cited from earlier work
T3 construct: Epithelial cells from the small intestine of rats were obtained; from tissue; host or cells: rat small intestine mucosa / epithelial cell suspension
T3 sequence (P23897 23-1072): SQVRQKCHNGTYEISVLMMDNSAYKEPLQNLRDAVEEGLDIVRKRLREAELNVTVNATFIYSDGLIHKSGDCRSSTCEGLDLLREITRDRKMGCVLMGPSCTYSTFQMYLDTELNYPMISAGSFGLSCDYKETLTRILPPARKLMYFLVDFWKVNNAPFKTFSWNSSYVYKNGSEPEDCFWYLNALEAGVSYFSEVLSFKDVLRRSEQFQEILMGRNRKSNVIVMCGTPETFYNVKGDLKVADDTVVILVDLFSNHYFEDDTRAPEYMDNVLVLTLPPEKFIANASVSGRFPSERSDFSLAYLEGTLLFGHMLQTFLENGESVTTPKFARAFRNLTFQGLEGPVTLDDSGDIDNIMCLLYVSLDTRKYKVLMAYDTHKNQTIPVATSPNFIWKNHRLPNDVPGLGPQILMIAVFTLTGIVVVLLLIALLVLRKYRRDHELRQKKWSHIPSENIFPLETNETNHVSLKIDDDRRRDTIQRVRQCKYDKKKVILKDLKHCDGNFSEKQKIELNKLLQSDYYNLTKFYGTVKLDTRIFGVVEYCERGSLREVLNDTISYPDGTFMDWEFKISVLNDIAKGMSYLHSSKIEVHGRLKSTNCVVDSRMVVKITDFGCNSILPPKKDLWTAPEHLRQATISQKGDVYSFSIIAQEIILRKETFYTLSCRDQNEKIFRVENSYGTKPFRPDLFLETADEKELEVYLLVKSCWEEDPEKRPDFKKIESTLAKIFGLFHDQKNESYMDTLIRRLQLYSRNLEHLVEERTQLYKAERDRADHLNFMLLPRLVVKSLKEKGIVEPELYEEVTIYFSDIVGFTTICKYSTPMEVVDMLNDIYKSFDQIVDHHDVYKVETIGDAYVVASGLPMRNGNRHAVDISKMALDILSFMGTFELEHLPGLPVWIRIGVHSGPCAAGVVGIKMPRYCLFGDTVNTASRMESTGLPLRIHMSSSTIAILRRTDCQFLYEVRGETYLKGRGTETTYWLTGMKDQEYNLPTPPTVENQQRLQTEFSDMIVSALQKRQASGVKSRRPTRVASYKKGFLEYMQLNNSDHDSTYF

[9] = recombinant peptides, dose response, FIG. 6a

## NSSNYCCEYCCNPACTGCY (cysteine pairing not given here) [SEQ ID NO:5]
[1]
  intestinal transit rate versus dosage: increases with an increasing dosage
[2]; [9]
  intestinal secretion (ratio of guts to carcass weight): increase intestinal secretion
[3]
  writhings: Significant reductions in writhings

## C[C@@H]1NC(=O)[C@@H]2CCCN2C(=O)[C@H](CC(N)=O)NC(=O)[C@@H]2CSSC[C@H](N)C(=O)N[C@H]3CSSC[C@H](NC1=O)C(=O)N[C@@H]([C@@H](C)O)C(=O)NCC(=O)N[C@H](C(=O)O)CSSC[C@H](NC(=O)[C@H](Cc1ccc(O)cc1)NC(=O)[C@H](CCC(=O)O)NC3=O)C(=O)N2 [SEQ ID NO:6] (H-CCEYCCNPACTGC-OH; disulfide 1-6, 2-10, 5-13)
[4]; 10 mg/kg IV
  AUC, intravenous dose (AUCi.v.,(0-6h)): 1,590,000 nM-min
[4]; 10 mg/kg oral
  AUC, oral dose (AUCp.o.,(0-6h)): < 1308 nM-min
[5]; carboxypeptidase A digestion of SEQ ID NO:3, T0
  average concentration: 108 (+/−2) nM
[5]; carboxypeptidase A digestion of SEQ ID NO:3, T240 (240 min)
  average concentration: 726 (+/−138) nM

## [H]/N=C(/NCCCCC)N/N=C/c1c[nH]c2ccc(OC)cc12 [Zelnorm®, tegaserod, reference compound]
[1]
  gastrointestinal transit rate: increase gastrointestinal transit rate
[6]
  gastrointestinal motility upon chronic dosing: effective
[2]; 0.2 mg/kg
  intestinal secretion (ratio of guts to carcass weight): does not increase intestinal secretion

## NSSNYCCELCCNPACTGCY [SEQ ID NO:4]
[7]
  activity in GC-C receptor activity assay: activity comparable to SEQ ID NO:4
[1]; chemically synthesized peptides, FIG. 4b
  intestinal transit rates versus Tris buffer and Zelnorm: increase intestinal transit rates more than either Tris buffer alone or an equivalent dose of Zelnorm®
[1]
  gastrointestinal transit rate: increase gastrointestinal transit rate
  intestinal transit rate versus dosage: increases with an increasing dosage
[2]; dose response, FIG. 5a, 5b
  intestinal secretion (ratio of guts to carcass weight): increase intestinal secretion
[2]; [9]
  intestinal secretion (ratio of guts to carcass weight): increase intestinal secretion
[8]
  Kd: ~13 nM
